Source: the NIST ThermoML archive (doi:10.1016/j.jct.2008.10.007)

Legend:
[1] = xn = mol fraction of the nth substance listed; conditions: 298.15 K, 101 kPa, Liquid, Vibrating tube method
[2] = excess molar enthalpy (molar enthalpy of mixing); xn = mol fraction of the nth substance listed; conditions: 298.15 K, 101 kPa, Liquid, Calvet calorimetry

CCCOC(=O)CCC [propyl butanoate] + ClCCCCCCl
Conditions	excess molar enthalpy [kcal/mol]	mass density [kg/m3]
[1], x1 = 0.0527	–	1081.35
[1], x1 = 0.1057	–	1067.82
[1], x1 = 0.1578	–	1054.69
[1], x1 = 0.2095	–	1041.82
[1], x1 = 0.2663	–	1027.99
[1], x1 = 0.3782	–	1001.4
[1], x1 = 0.4944	–	974.66
[1], x1 = 0.6144	–	947.96
[1], x1 = 0.7409	–	920.76
[1], x1 = 0.804	–	907.58
[1], x1 = 0.8678	–	894.43
[1], x1 = 0.9363	–	880.61
[1], x1 = 1	–	867.9
[2], x1 = 0.0559	-0.00311	–
[2], x1 = 0.1285	-0.0086	–
[2], x1 = 0.2091	-0.0167	–
[2], x1 = 0.2908	-0.0258	–
[2], x1 = 0.3699	-0.0351	–
[2], x1 = 0.4417	-0.0449	–
[2], x1 = 0.4998	-0.0504	–
[2], x1 = 0.553	-0.0526	–
[2], x1 = 0.5757	-0.0523	–
[2], x1 = 0.6397	-0.0497	–
[2], x1 = 0.71	-0.0445	–
[2], x1 = 0.7828	-0.0368	–
[2], x1 = 0.8561	-0.0265	–
[2], x1 = 0.9304	-0.0146	–

CCCOC(C)=O [propyl ethanoate] + ClCCCCl
Conditions	mass density [kg/m3]
[1], x1 = 1	882.08

ClCCCCCCl [1,5-dichloropentane] + CCCOC=O
Conditions	excess molar enthalpy [kcal/mol]	mass density [kg/m3]
[1], x2 = 0.1431	–	1073.06
[1], x2 = 0.215	–	1061.43
[1], x2 = 0.2831	–	1050.01
[1], x2 = 0.3476	–	1038.81
[1], x2 = 0.4101	–	1027.62
[1], x2 = 0.4756	–	1015.48
[1], x2 = 0.5351	–	1004.04
[1], x2 = 0.65	–	980.9
[1], x2 = 0.7551	–	958.34
[1], x2 = 0.8569	–	935.09
[1], x2 = 0.9046	–	923.69
[1], x2 = 0.953	–	911.75
[2], x2 = 0.0772	0.0148	–
[2], x2 = 0.1733	0.0261	–
[2], x2 = 0.2797	0.0335	–
[2], x2 = 0.3611	0.0349	–
[2], x2 = 0.4265	0.0339	–
[2], x2 = 0.48	0.0323	–
[2], x2 = 0.5257	0.0301	–
[2], x2 = 0.5865	0.0263	–
[2], x2 = 0.6476	0.0215	–
[2], x2 = 0.7088	0.0163	–
[2], x2 = 0.7665	0.0115	–
[2], x2 = 0.8266	0.00717	–
[2], x2 = 0.8827	0.00406	–
[2], x2 = 0.9526	0.0012	–

ClCCCCCl [1,4-dichlorobutane] + CCCOC(C)=O
Conditions	excess molar enthalpy [kcal/mol]	mass density [kg/m3]
[1], x2 = 0.0583	–	1118.51
[1], x2 = 0.1175	–	1103.2
[1], x2 = 0.1743	–	1088.55
[1], x2 = 0.232	–	1073.72
[1], x2 = 0.3494	–	1043.76
[1], x2 = 0.465	–	1014.55
[1], x2 = 0.523	–	999.98
[1], x2 = 0.5845	–	984.6
[1], x2 = 0.6424	–	970.19
[1], x2 = 0.7011	–	955.64
[1], x2 = 0.7618	–	940.61
[1], x2 = 0.8813	–	911.2
[1], x2 = 0.9397	–	896.91
[2], x2 = 0.0555	-0.00478	–
[2], x2 = 0.1316	-0.0131	–
[2], x2 = 0.2183	-0.0234	–
[2], x2 = 0.3079	-0.0359	–
[2], x2 = 0.3915	-0.048	–
[2], x2 = 0.456	-0.055	–
[2], x2 = 0.4663	-0.0559	–
[2], x2 = 0.4979	-0.0576	–
[2], x2 = 0.5721	-0.0564	–
[2], x2 = 0.6576	-0.0523	–
[2], x2 = 0.7494	-0.0447	–
[2], x2 = 0.8443	-0.0318	–
[2], x2 = 0.9296	-0.0174	–

CCCOC=O [propyl methanoate] + ClCCCCCCl
Conditions	mass density [kg/m3]
[1], x1 = 1	899.81

CCCOC(C)=O [propyl ethanoate] + ClCCCl
Conditions	mass density [kg/m3]
[1], x1 = 1	882.08

CCCOC(C)=O [propyl ethanoate] + ClCCCCCCl
Conditions	mass density [kg/m3]
[1], x1 = 1	882.08

CCCOC(=O)CC [propyl propanoate] + ClCCCCl
Conditions	mass density [kg/m3]
[1], x1 = 1	875.61

CCCOC(=O)CC [propyl propanoate] + ClCCCCCCl
Conditions	mass density [kg/m3]
[1], x1 = 1	875.61

CCCOC(C)=O [propyl ethanoate] + ClCCCCCl
Conditions	mass density [kg/m3]
[1], x1 = 1	882.08

CCCOC(C)=O [propyl ethanoate] + ClCCCCCCCl
Conditions	mass density [kg/m3]
[1], x1 = 1	882.08

CCCOC(=O)CC [propyl propanoate] + ClCCCCCCCl
Conditions	mass density [kg/m3]
[1], x1 = 1	875.61
